The target in test [1] is T1, cPLA2 (Homo sapiens, UniProt P47712).
T1 sequence (P47712 1-749): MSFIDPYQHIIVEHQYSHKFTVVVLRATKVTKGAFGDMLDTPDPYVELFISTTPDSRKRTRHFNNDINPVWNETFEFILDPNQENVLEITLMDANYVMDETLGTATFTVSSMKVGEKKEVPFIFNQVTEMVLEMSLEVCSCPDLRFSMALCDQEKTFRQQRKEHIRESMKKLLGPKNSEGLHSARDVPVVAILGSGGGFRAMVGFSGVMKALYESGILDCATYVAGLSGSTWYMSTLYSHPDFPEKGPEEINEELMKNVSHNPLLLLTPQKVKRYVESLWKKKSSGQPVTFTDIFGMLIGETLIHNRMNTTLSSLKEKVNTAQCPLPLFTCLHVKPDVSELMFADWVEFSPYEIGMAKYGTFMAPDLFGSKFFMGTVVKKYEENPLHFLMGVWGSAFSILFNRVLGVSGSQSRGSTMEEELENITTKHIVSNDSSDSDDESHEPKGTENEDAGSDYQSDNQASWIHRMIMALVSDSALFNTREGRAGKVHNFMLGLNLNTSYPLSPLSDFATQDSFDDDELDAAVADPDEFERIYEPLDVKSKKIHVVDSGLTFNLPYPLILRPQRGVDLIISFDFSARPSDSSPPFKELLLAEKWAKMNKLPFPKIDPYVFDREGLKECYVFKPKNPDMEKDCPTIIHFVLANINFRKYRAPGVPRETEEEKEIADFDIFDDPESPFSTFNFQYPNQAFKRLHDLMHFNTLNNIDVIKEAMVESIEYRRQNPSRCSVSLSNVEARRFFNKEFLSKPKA
The test is described as follows: cPLA2 Inhibitory Activity. Format: biochemical. Conditions: 1-palmitoyl-2-[14C]-arachidonoyl-sn-glycero-3-phosphocholine 2.5 μM, sn-1,2-dioleoylglycerol 1.25 μM; pH 7.5, 15 min at 37° C. Put shortly: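 Radiometric assay in 50 mM HEPES pH 7.5 with 1 mM CaCl2, 150 mM NaCl, 0.1 mg/ml BSA and 1.7 mM DTT; compound and substrate added, reaction started with enzyme, 15 min at 37° C. Released fatty acids extracted (Dole method), counted by liquid scintillation versus no-compound control.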

Test [2] concerns production of prostaglandin E2 by human fibroblasts. The test is described as follows: Inhibition of Production of Prostaglandin E2 in Human Fibroblasts (IL-1 stimulation). It is filed as cell-based. To be noted: Fibroblast; human fibroblasts under stimulation with IL-1. As for the experimental part:
Test Example 2 Inhibition of Production of Prostaglandin E2 in Human Fibroblasts.
In order to examine the availability of the composition for inhibiting cytosolic phospholipase A2 (cPLA2) on the cells, the compounds of the present invention were tested for the effect on the production of prostaglandin E2 by human fibroblasts under the stimulation with IL-1 according to the method of J. M. Dayer et al (CACHECTIN/TUMOR NECROSIS FACTOR STIMULATES COLLAGENASE AND PROSTAGLANDIN E2 PRODUCTION BY HUMAN SYNOVIAL CELLS AND DERMAL FIBROBLASTS; J. M. Dayer, B, Beutler and A, Cerami, J. EXP. Med., 1985, 162, 2163-2168.).

A word on the IC50: it is the concentration at which inhibition is half-maximal. Read a low IC50 as higher potency. With `O=C1NC(=O)/C(=C/c2ccc(S(=O)(=O)NC[C@@H]3C[C@@H](OCc4ccccc4-c4ccccc4)CN3C(=O)c3ccccc3C(=O)c3ccc(F)cc3)s2)S1` [Compound A-60], the IC50 in test [1] and in test [2] was 1300 nM throughout.

In the case of `O=C1NC(=O)/C(=C/c2ccc(S(=O)(=O)NC[C@@H]3C[C@@H](OCc4ccccc4-c4ccccc4)CN3C(=O)c3ccccc3C(=O)c3ccc(F)cc3)cc2)S1` [Compound A-62], the IC50 stood at 260 nM in test [1] and 1100 nM in test [2].

Turning to `O=C1NC(=O)/C(=C/c2ccc(C(=O)NC[C@@H]3C[C@@H](Oc4ccccc4-c4ccccc4)CN3C(=O)c3ccccc3C(=O)c3ccc(F)cc3)cc2)S1` [Compound A-67], the IC50 was 69 nM in test [1] and 390 nM in test [2].

In the case of `O=C1NC(=O)/C(=C/c2ccc(C(=O)NC[C@@H]3C[C@@H](Oc4cccc(-c5ccccc5)c4)CN3C(=O)c3ccccc3C(=O)c3ccc(F)cc3)cc2)S1` [Compound A-69], the IC50 in test [1] amounted to 72 nM; in test [2], 190 nM.

As to `O=C1NC(=O)/C(=C/c2ccc(C(=O)NC[C@@H]3C[C@@H](Oc4ccc(-c5ccccc5)cc4)CN3C(=O)c3ccccc3C(=O)c3ccc(F)cc3)cc2)S1` [Compound A-70], the IC50 was 90 nM in test [1] and 190 nM in test [2].

Regarding `O=C1NC(=O)/C(=C/c2ccc(C(=O)NC[C@@H]3C[C@@H](Oc4ccc5ccccc5c4)CN3C(=O)c3ccccc3C(=O)c3ccc(F)cc3)cc2)S1` [Compound A-71], the values for the IC50 in test [1] and in test [2] were 190 nM and 310 nM, respectively.

As for `O=C1NC(=O)/C(=C/c2ccc(C(=O)NC[C@@H]3C[C@@H](Oc4cccc5ccccc45)CN3C(=O)c3ccccc3C(=O)c3ccc(F)cc3)cc2)S1` [Compound A-73], the IC50 in test [1] was 110 nM; in test [2], 100 nM.

Consider `CC(C)(C)c1ccccc1O[C@@H]1C[C@@H](CNC(=O)c2ccc(/C=C3\SC(=O)NC3=O)cc2)N(C(=O)c2ccccc2C(=O)c2ccc(F)cc2)C1` [Compound A-75], for which the IC50 in test [1] is 190 nM; in test [2], 2200 nM.

For the compound `O=C1NC(=O)/C(=C/c2ccc(C(=O)NC[C@@H]3C[C@@H](Oc4ccccc4C4CCCC4)CN3C(=O)c3ccccc3C(=O)c3ccc(F)cc3)cc2)S1` [Compound A-76], the IC50 in test [1] was 72 nM; in test [2], 520 nM.

As to `O=C1NC(=O)/C(=C/c2ccc(C(=O)NC[C@@H]3C[C@@H](Oc4cccc5c4CCCC5)CN3C(=O)c3ccccc3C(=O)c3ccc(F)cc3)cc2)S1` [Compound A-77], the figures for the IC50 in test [1] and in test [2] were 100 nM and 350 nM, respectively.

As for `O=C1NC(=O)/C(=C/c2ccc(C(=O)NC[C@@H]3C[C@@H](Oc4ccc5cc(-c6ccccc6)ccc5c4)CN3C(=O)c3ccccc3C(=O)c3ccc(F)cc3)cc2)S1` [Compound A-79], the half-maximal inhibitory concentration (IC50) came out at 20 nM in test [1] and 310 nM in test [2].

As to `O=C1NC(=O)/C(=C/c2ccc(C(=O)NC[C@@H]3C[C@@H](Oc4cc(-c5ccccc5)c5ccccc5c4)CN3C(=O)c3ccccc3C(=O)c3ccc(F)cc3)cc2)S1` [Compound A-81], the IC50 is 53 nM in test [1] and 350 nM in test [2].

For the compound `O=C1NC(=O)/C(=C/c2ccc(C(=O)NC[C@@H]3C[C@@H](Oc4ccc(/C=C/c5ccccc5)cc4)CN3C(=O)c3ccccc3C(=O)c3ccc(F)cc3)cc2)S1` [Compound A-82], the IC50 was 50 nM in test [1] and 45 nM in test [2].

In the case of `O=C1NC(=O)/C(=C/c2ccc(C(=O)NC[C@@H]3C[C@@H](Oc4ccccc4Cc4ccccc4)CN3C(=O)c3ccccc3C(=O)c3ccc(F)cc3)cc2)S1` [Compound A-83], the 50% inhibitory concentration (IC50) in test [1] turned out to be 53 nM; in test [2] it was 230 nM.

As to `O=C1NC(=O)/C(=C/c2ccc(C(=O)NC[C@@H]3C[C@@H](Oc4cccc(-c5ccc6ccccc6c5)c4)CN3C(=O)c3ccccc3C(=O)c3ccc(F)cc3)cc2)S1` [Compound A-84], the IC50 in test [1] was 33 nM; in test [2], 250 nM.

Regarding `O=C1NC(=O)/C(=C/c2ccc(C(=O)NC[C@@H]3C[C@@H](Oc4ccc5ccccc5c4-c4ccccc4)CN3C(=O)c3ccccc3C(=O)c3ccc(F)cc3)cc2)S1` [Compound A-86], the 50% inhibitory concentration (IC50) in test [1] was 28 nM; in test [2], 93 nM.

With `CN(C)c1cccc(O[C@@H]2C[C@@H](CNC(=O)c3ccc(/C=C4\SC(=O)NC4=O)cc3)N(C(=O)c3ccccc3C(=O)c3ccc(F)cc3)C2)c1` [Compound A-87], the IC50 worked out at 180 nM in test [1] and 330 nM in test [2].

As to `CCN(CC)c1cccc(O[C@@H]2C[C@@H](CNC(=O)c3ccc(/C=C4\SC(=O)NC4=O)cc3)N(C(=O)c3ccccc3C(=O)c3ccc(F)cc3)C2)c1` [Compound A-89], the IC50 in test [1] is 96 nM; in test [2], 490 nM.

Consider `CN(c1ccccc1)c1cccc(O[C@@H]2C[C@@H](CNC(=O)c3ccc(/C=C4\SC(=O)NC4=O)cc3)N(C(=O)c3ccccc3C(=O)c3ccc(F)cc3)C2)c1` [Compound A-91], for which the IC50 in test [1] was 50 nM; in test [2] it was 940 nM.

For `O=C1NC(=O)/C(=C/c2ccc(C(=O)NC[C@@H]3C[C@@H](Oc4ccccc4-c4cccc5ccccc45)CN3C(=O)c3ccccc3C(=O)c3ccc(F)cc3)cc2)S1` [Compound A-94], the IC50 amounted to 24 nM in test [1] and 1400 nM in test [2].

Take `O=C1NC(=O)/C(=C/c2ccc(C(=O)NC[C@@H]3C[C@@H](Oc4ccccc4-c4ccc5ccccc5c4)CN3C(=O)c3ccccc3C(=O)c3ccc(F)cc3)cc2)S1` [Compound A-95]: the IC50 worked out at 76 nM in test [1] and 390 nM in test [2].

Take `Cc1ccccc1-c1ccccc1O[C@@H]1C[C@@H](CNC(=O)c2ccc(/C=C3\SC(=O)NC3=O)cc2)N(C(=O)c2ccccc2C(=O)c2ccc(F)cc2)C1` [Compound A-97]: the values for the half-inhibitory concentration (IC50) in test [1] and in test [2] were 51 nM and 640 nM, respectively.

Take `COc1cccc(-c2ccccc2O[C@@H]2C[C@@H](CNC(=O)c3ccc(/C=C4\SC(=O)NC4=O)cc3)N(C(=O)c3ccccc3C(=O)c3ccc(F)cc3)C2)c1` [Compound A-98]: the IC50 in test [1] came to 59 nM; in test [2] it was 440 nM.

With `O=C1NC(=O)/C(=C/c2ccc(C(=O)NC[C@@H]3C[C@@H](Oc4ccccc4-c4ccc5c(c4)OCO5)CN3C(=O)c3ccccc3C(=O)c3ccc(F)cc3)cc2)S1` [Compound A-101], the IC50 in test [1] is 62 nM; in test [2] it was 350 nM.

Turning to `O=C1NC(=O)/C(=C/c2ccc(C(=O)NC[C@@H]3C[C@@H](Oc4ccccc4-c4cccc5c4OCO5)CN3C(=O)c3ccccc3C(=O)c3ccc(F)cc3)cc2)S1` [Compound A-102], the 50% inhibitory concentration (IC50) came out at 52 nM in test [1] and 330 nM in test [2].

Regarding `O=C1NC(=O)/C(=C/c2ccc(C(=O)NC[C@@H]3C[C@@H](Oc4ccccc4-c4ccccc4-c4ccccc4)CN3C(=O)c3ccccc3C(=O)c3ccc(F)cc3)cc2)S1` [Compound A-103], the IC50 in test [1] is 58 nM; in test [2], 590 nM.

`CC(C)c1cccc(-c2ccccc2)c1O[C@@H]1C[C@@H](CNC(=O)c2ccc(/C=C3\SC(=O)NC3=O)cc2)N(C(=O)c2ccccc2C(=O)c2ccc(F)cc2)C1` [Compound A-104]: the results for the IC50 in test [1] and in test [2] were 38 nM and 1300 nM, respectively.

Regarding `COc1ccccc1-c1ccccc1O[C@@H]1C[C@@H](CNC(=O)c2ccc(/C=C3\SC(=O)NC3=O)cc2)N(C(=O)c2ccccc2C(=O)c2ccc(F)cc2)C1` [Compound A-107], the 50% inhibitory concentration (IC50) was found to be 41 nM in test [1] and 1100 nM in test [2].

For the compound `Cc1cccc(-c2ccccc2O[C@@H]2C[C@@H](CNC(=O)c3ccc(/C=C4\SC(=O)NC4=O)cc3)N(C(=O)c3ccccc3C(=O)c3ccc(F)cc3)C2)c1` [Compound A-108], the IC50 in test [1] came out at 44 nM; in test [2], 470 nM.

`O=C1NC(=O)/C(=C/c2ccc(C(=O)NC[C@@H]3C[C@@H](Oc4ccccc4-c4cccc(C(F)(F)F)c4)CN3C(=O)c3ccccc3C(=O)c3ccc(F)cc3)cc2)S1` [Compound A-109]: the IC50 in test [1] worked out at 59 nM; in test [2] it was 1200 nM.

For `O=C1NC(=O)/C(=C/c2ccc(C(=O)NC[C@@H]3C[C@@H](Oc4ccccc4-c4cccc([N+](=O)[O-])c4)CN3C(=O)c3ccccc3C(=O)c3ccc(F)cc3)cc2)S1` [Compound A-111], the IC50 in test [1] came to 66 nM; in test [2], 470 nM.
